Measurements taken from publication PMC10175918 (Communications Biology, 2023).
Where “and” joins values, the source holds several entries; their conditions need not be identical. Identical values can stand only once.

Experiments:
UTS2R M134T = experiment: TGFα-shedding assay on UTS2R mutant M134T; format: cell-based, human; conditions: cutoff value set to −1, single replicates
UTS2R D130G = experiment: TGFα-shedding assay on UTS2R SNV mutant D130G; format: cell-based, human; conditions: cutoff value set to −1, single replicates
[1] = target: T1, UTS2R (β-arrestin 2 recruitment) (Homo sapiens, UniProt Q9UKP6); experiment: NanoBiT β-arrestin 2 recruitment assay for UTS2R; format: cell-based; conditions: β-arrestin 2, Supplementary Fig. 1b
T1 construct: expressed in transfected cells; host or cells: HEK293A
T1 sequence (Q9UKP6 whole entry): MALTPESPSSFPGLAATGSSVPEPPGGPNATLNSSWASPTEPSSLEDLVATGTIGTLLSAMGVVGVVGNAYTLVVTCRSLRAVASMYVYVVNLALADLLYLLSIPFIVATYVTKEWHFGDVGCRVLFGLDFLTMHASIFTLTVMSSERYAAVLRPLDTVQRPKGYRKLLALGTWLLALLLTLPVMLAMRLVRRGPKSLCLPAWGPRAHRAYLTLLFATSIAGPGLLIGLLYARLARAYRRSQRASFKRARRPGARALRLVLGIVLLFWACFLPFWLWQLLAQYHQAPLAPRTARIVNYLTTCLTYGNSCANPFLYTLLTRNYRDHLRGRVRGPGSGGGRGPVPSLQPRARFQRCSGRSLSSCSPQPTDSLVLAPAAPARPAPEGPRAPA

[2] = system: human induced pluripotent stem cell-derived cardiomyocytes (hiPSC-CMs); experiment: Field potential recording (MEA) in hiPSC-CMs; format: cell-based; conditions: for prolonged FPD: 1 µM remdesivir; for FPD delay: remdesivir with UTS2R antagonist (urantide)
Experimental: Human induced pluripotent stem cell-derived cardiomyocytes (hiPSC-CMs) were purchased from Fujifilm Cellular Dynamics, Inc. (CDI; iCell cardiomyocytes 2.0). To prepare the probe (MED-PG515A, Alpha MED Sciences), the recording areas were coated with fibronectin and dissolved in Dulbecco’s phosphate-buffered saline to create a 50 µg/mL solution. The recording area was covered with 1–2 µL fibronectin solution, and the probes were incubated at 37 °C for at least 1 h. Cells were thawed and suspended in iCell Cardiomyocytes Plating Medium (CDI) and plated onto the probes at a density of 3.5×10^4 cells in a 2 µL plating medium. The cells were incubated at 37 °C in 5% CO2 for 3–4 h before filling each probe with 1 mL iCell cardiomyocytes maintenance medium (CDI), which was used as the culture medium. The medium was changed every 2–3 days, with the cells cultured in the probes for 5–14 days to obtain a sheet of cardiomyocytes with spontaneous and synchronous electrical activity.
FP recording was carried out[35],[60]. Before measuring FPs, iCell cardiomyocyte sheets were equilibrated for at least 4 h in a fresh culture medium using a 5% CO2 incubator at 37 °C. After equilibration, the probes were transferred to the multi-electrode array (MEA) system (MED64, Alpha med Scientific) and incubated in a humidified 5% CO2 atmosphere. The stability and constancy of the waveforms were confirmed by monitoring the signals for at least 30 min. Once the FPs reached a stable state, they were recorded for 10 min at the baseline and then 24, 48, and 72 h after drug treatment. The stock solutions of drugs were prepared in dimethyl sulfoxide (DMSO) or distilled water at a 1000-fold target concentration. The stock solution was diluted in a culture medium to a final concentration of 0.1% DMSO.
The FP duration (FPD) was defined as the duration from the first to the second peak in FP[35]. The FPD was corrected for the beat rate (inter-spike interval (ISI)) with Fridericia’s formula (Eq. 1), which was the primary method of correction in this study:1 (FPDcF=FPD/(ISI/1000)^1/3).

[3] = system: adult mouse cardiomyocytes; experiment: Contractility under pacing of adult mouse cardiomyocytes; format: cell-based; conditions: 10 µM remdesivir, 30 min
Experimental: C57BL/6J mice for the isolation of adult mouse cardiomyocytes were purchased from Japan SLC Inc. (Shizuoka, Japan). Isolation of adult mouse ventricular cardiomyocytes was performed. Male mice were anesthetized by inhalation with isoflurane. The heart was quickly excised, and the aorta was clamped with a small vascular clamp. The heart was antegradely perfused with isolation buffer (less than 3 mL) containing 130 mM NaCl, 5.4 mM KCl, 0.5 mM MgCl2, 0.33 mM NaH2PO4, 25 mM HEPES, 22 mM glucose, and 50 μU/mL bovine insulin (Sigma) (pH 7.4, adjusted with NaOH) supplemented with 0.4 mM EGTA, followed by the perfusion of enzyme solution (10 mL) (isolation buffer containing 1 mg/mL collagenase type 2 (Worthington), 0.06 mg/mL trypsin (Sigma), 0.06 mg/mL protease (Sigma), and 0.3 mM CaCl2). Thereafter, the LV chamber was removed and cut into small pieces in an enzyme solution containing 0.2% bovine serum albumin (BSA) and 0.7 mM CaCl2. The tissue-cell suspension was filtered through a cell strainer (100 μm, Falcon) and centrifuged for 3 min at 50×g. After removing the supernatant, the cell pellet was resuspended in isolation buffer supplemented with 0.2% BSA and 1.2 mM CaCl2 and incubated for 7 min at 37 °C. […]
Microscopic images of cardiomyocytes were recorded for 13 seconds under pacing conditions. […] Imaging data were analyzed using Fiji software.

[4] = design: method as in earlier work; conditions: intravenous injection, healthy adults; cited from earlier work
[5] = cited from earlier work

CCC(CC)COC(=O)[C@H](C)N[P@](=O)(OC[C@H]1O[C@@](C#N)(c2ccc3c(N)ncnn23)[C@H](O)[C@@H]1O)Oc1ccccc1 [remdesivir]
⊿pEC50 compared to WT UTS2R (UTS2R M134T): -1 | ⊿pEC50 compared to WT UTS2R (UTS2R D130G): > 0.3 and 0.2569 and 0.39 and 0.2404 and 0.3246 | β-arrestin recruitment response [1]: failed to induce a β-arrestin recruitment response | prolonged FPD ([2]; 24 h): 1.32 ± 1.38% | prolonged FPD ([2]; 48 h): 5.60 ± 1.60% | prolonged FPD ([2]; 72 h): 15.57 ± 3.49% | FPD delay ([2]; 24 h): −1.71 ± 1.60% | FPD delay ([2]; 48 h): −0.61 ± 0.11% | contraction of adult cardiomyocytes [3]: significantly impaired the contraction | maximum plasma concentration [4]: 9.03 µM | patients showing arrhythmias (other than atrial fibrillation, supraventricular tachycardia, ventricular tachycardia, ventricular fibrillation) ([5]; ACTT-1 trial, patients receiving remdesivir): 0.2 % of patients | time to resolution of cardiac adverse effects after discontinuing remdesivir [5]: 24 to 48 h
